Literature values as cited in patent publication US8062633B2, “Surface sanitizer for the food industry based on three new lactic acid bacteria that have antagonistic action against Listeria monocytogenes, the microorganism that causes listeriosis in humans” (Universidad Austral de Chile, priority 2009, dated 2011).

Legend:
[1] = system: L. monocytogenes; settings: 48 h of incubation
[2] = system: Listeria monocytogenes Scott A; settings: tofu stored at 10° C.

For nisin, the “regrowth of L. monocytogenes in culture broth” value [1] is listed as “developed resistance and grew again after 48 h” and the “development of L. monocytogenes in tofu” value [2] is listed as “Listeria started to grow again from the second day onward”.
